How the values were obtained:
human serum albumin = human serum albumin (Homo sapiens, UniProt P02768); assay: Human serum albumin binding by surface plasmon resonance (Biacore 8K); details: human serum albumin bound to CM5 chip
Protocol: Method: Binding of molecules to serum albumin was characterized by surface plasmon resonance in a Biacore 8K instrument. Serum albumin from different species was covalently bound to CM5 sensor chips surface until 4000 RU was reached. The chip was blocked by 1M ethanolamine with flowrate of 10 μL/min for 420 s. Each molecule sample was diluted and injected at a flow rate of 30 μL/min to allow for binding to chip-bound albumin for 120 s and for dissociation for 300 s. Binding buffer without molecule was sent over the chip at the flow rate of 20 seconds to allow spontaneous dissociation of bound molecule for 30 seconds.

db/db mice = assay: Non-fasting glucose in db/db mice after a single s.c. dose; type: in vivo
Protocol: Method: 10 weeks old male db/db mice were injected subcutaneously with GLP-1 polypeptide conjugate once. […] Delta blood glucose is glucose subtracted by baseline level. […] The area under the curve for delta blood glucose from 0 until 192 hours (AUCΔ8G 0-192 h) was calculated.

[1] = Body weight loss in C57 lean mice after a single s.c. dose; type: in vivo, C57BL/6 mice; details: 30 nmol/kg s.c. once
Protocol: Method: 10 week old male C57BL/6 mice were injected subcutaneously with protein once on Day1. Body weight was measured daily and five animals were used for each treatment group. Body weight was monitored for each individual animal. % BW loss=100*(BW on Day n-BW on Day 1)/(BW on Day 1). […] The area under the curve for body weight loss (%) from 0 until 8 days (AUC ΔBW 0-8d) was calculated.

GLP-1 receptor = GLP-1 receptor (Homo sapiens, UniProt P43220); details: J. Med. Chem. 2015, 58, 7370-7380; cited from earlier work
Chain of GLP-1 receptor (P43220 24-463, species assumed): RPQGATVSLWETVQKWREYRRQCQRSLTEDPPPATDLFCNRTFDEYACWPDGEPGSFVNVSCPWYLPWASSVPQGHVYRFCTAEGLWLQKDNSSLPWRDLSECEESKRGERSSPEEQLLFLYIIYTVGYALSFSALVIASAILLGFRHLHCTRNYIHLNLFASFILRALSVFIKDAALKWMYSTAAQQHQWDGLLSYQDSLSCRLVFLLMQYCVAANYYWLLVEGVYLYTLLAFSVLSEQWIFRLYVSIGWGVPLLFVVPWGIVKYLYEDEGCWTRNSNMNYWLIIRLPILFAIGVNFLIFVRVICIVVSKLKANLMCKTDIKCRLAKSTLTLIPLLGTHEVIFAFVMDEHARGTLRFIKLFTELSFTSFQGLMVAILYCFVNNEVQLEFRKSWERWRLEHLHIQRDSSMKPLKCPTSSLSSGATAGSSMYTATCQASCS

Chain of human serum albumin (P02768 25-609): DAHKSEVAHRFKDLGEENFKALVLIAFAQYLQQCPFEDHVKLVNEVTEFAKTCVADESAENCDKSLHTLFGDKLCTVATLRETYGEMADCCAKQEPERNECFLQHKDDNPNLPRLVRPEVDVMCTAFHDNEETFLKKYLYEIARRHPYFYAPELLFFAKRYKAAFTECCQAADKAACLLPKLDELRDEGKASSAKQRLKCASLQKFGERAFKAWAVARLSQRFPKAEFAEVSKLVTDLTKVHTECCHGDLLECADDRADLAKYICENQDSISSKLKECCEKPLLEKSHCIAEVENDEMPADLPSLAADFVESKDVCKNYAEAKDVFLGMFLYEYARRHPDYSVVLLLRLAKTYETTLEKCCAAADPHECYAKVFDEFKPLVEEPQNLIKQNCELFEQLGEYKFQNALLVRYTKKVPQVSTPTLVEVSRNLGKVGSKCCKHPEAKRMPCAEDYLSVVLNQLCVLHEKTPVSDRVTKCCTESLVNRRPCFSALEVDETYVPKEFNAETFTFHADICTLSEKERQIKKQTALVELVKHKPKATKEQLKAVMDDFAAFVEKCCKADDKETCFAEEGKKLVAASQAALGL

Semaglutide [reference compound]
Rmax (human serum albumin): 55.2 RU
AUCΔBG 0-192 h (db/db mice; 3 nmol/kg s.c. once): -317.0 mmol·h/L
AUCΔBG 0-192 h (db/db mice; 10 nmol/kg s.c. once): -583.4 mmol·h/L
AUCΔBG 0-192 h (db/db mice; 30 nmol/kg s.c. once): -527.1 mmol·h/L
AUC ΔBW 0-8 d ([1]; Study 1 (FIG. 1A)): −9.3 day*%
AUC ΔBW 0-8 d ([1]; Study 2 (FIG. 1B)): −13.2 day*%
Loss in GLP-1 receptor binding in presence of human serum albumin relative to unconjugated counterpart (GLP-1 receptor): 939 fold

From patent publication US12383623B2, “Liquid pharmaceutical compositions of polypeptide conjugates and methods of uses thereof” (BEIJING QL BIOPHARMACEUTICAL CO., LTD., priority 2022, dated 2025)
